The nature of data set [1]: Mouse liver microsome stability. As to conditions: CD-1, mouse, liver microsomes, pH 7.4, In Vitro Half-Life (Min), second series, different liver microsome preparation. (In general: Liver microsomes are a subcellular fraction often used to study metabolism.)
A further data set concerns SW620 tumor organoids. Description: Tumor organoid cytotoxicity (CellTiter-Glo 3D).
The next data set concerns the target T1, cat-CHD1L ATPase (Homo sapiens, UniProt Q86WJ1).
T1 construct: inferred from Ni-NTA / imidazole purification; made in house; host or cells: E. coli Rosetta 2 (DE3) pLysS; constructs were a gift from Helena Berglund, Karolinska Institute
T1 sequence (Q86WJ1 16-611 limits assumed): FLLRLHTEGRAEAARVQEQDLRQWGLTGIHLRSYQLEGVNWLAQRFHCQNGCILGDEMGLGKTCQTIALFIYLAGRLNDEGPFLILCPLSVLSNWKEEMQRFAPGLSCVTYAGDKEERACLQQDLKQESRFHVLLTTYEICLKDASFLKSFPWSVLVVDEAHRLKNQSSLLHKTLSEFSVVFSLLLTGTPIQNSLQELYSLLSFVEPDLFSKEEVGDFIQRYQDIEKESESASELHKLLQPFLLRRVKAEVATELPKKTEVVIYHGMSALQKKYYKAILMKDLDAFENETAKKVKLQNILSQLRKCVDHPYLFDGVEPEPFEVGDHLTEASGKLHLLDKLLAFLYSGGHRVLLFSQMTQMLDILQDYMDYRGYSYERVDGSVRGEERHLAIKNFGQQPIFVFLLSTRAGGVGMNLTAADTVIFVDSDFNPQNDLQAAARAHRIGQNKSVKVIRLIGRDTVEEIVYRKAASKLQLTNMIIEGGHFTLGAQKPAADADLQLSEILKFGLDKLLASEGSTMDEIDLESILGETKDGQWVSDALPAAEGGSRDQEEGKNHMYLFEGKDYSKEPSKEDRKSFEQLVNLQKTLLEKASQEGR
The data set is described as follows: CHD1L ATPase assay with recombinant catalytic domain (cat-CHD1L). The class given is biochemical. To be noted: for IC50: Table 6, read-out: cat-CHD1L inhibition IC50. As to the method: All reactions were carried out using low volume non-binding surface 384-well plates (Corning Inc., Corning N.Y.). cat-CHD1L or fl-CHD1L (100 nM) and 200 nM c-Myc DNA or mononucelosome (Active Motif, Carlsbad, Calif.) were added to a buffer containing 50 mM Tris pH 7.5, 50 mM NaCl, 1 mM DTT, 5% glycerol, and the reaction was initiated by the addition of 10 μM ATP (New England Biolabs, Ipswich, Mass.) to a total volume of 10 μL and incubated at 37° C. for 1 h. ATPase activity was assayed by adding 500 nM of Phosphate Sensor (Life Technologies, Carlsbad, Calif.), containing labeled phosphate-binding protein, specifically labeled with the fluorophore MDCC, and measuring excitation (430 nm) and emission (450 nm) immediately on an EnVision® plate reader (PerkinElmer, Hopkinton, Mass.). An inorganic phosphate standard curve was used to convert the fluorescence to [Pi], and enzyme kinetics were determined using Prism8 (GraphPad Software, San Diego, Calif.).
Assay composition was the same as described above using cat-CHD1L, except that the reaction mixture volume was modified to accommodate addition of drug or DMSO. Using a Janus® liquid handler (PerkinElmer, Hopkinton, Mass.), a selected amount of compounds dissolved in 100% DMSO were mixed with 50 mM Tris pH 7.5, 50 mM NaCl, 1 mM DTT, 5% glycerol buffer to 200 μM in 10% DMSO. […] The negative control used was 1% DMSO and 10 mM EDTA was used as a positive control. Reactions were initiated with the addition of 10 μM ATP and incubated at 37° C. for 1 h. ATPase activity was measured by fluorescence by adding 500 nM Phosphate Sensor. cat-CHD1L was screened against a 20,000-compound diversity set from Life Chemicals (Woodbridge, Conn.) and a Kinase Inhibitor library from Selleck Chemicals (Houston, Tex.).
CHD1L Enzyme ATPase Assay. […] All reactions were carried out using low volume nonbinding surface 384-well plates (Corning Inc., Corning, N.Y.). […] The reaction was initiated by the addition of 10 μmol/L ATP (New England Biolabs, Ipswich, Mass.) to a total volume of 10 μL and incubated at 37° C. for 1 hour. ATPase activity was measured by adding 500 nmol/L of Phosphate Sensor (ThermoFisher, Waltham, Mass.) measuring excitation (430 nm) and emission (450 nm) immediately on an Envision plate reader (PerkinElmer, Waltham, Mass.). Background signal was determined by using all assay components excluding the enzyme.

The test system of a further data set is HCT116 tumor organoids. The data set is described as follows: Tumor organoid cytotoxicity (CellTiter-Glo 3D). Type of data set: cell-based, human. As to conditions: Table 6, read-out: 3 D Cytotoxicity 72 hr IC50 (μM) HCT116. As to the method:
Cell based cytotoxicity dose response and combination studies. […] Plates were then incubated for 3 days before treatment.
Cell Line Tumor Organoid Culture.
Tumor Organoid Cytotoxicity.
In general terms: In ATP-based viability assays light output follows the ATP content of the culture.

Where [2] appears, read: Homo sapiens, SW-620, 72 h, read-out: 3 D Cytotoxicity 72 hr IC50 (μM) SW620.

Molecules are shown by their SMILES. Read-outs that look alike come from different tables or passages of the source.

As usually defined, the half-life is the time needed for the level to fall by half in the phase considered. As a reminder, the IC50 is the midpoint of a concentration-inhibition curve.

Turning to `O=C(Cc1cccs1)Nc1ccc(Nc2nc(N3CCCC3)ncc2F)cc1` [Compound 6.2, N-(4-((5-fluoro-2-(pyrrolidin-1-yl)pyrimidin-4-yl)amino)phenyl)-2-(thiophen-2-yl)acetamide], in data set [1], the half-life at 10 μM is 26.1 min. For the same compound, the half-maximal inhibitory concentration (IC50) with SW620 tumor organoids (setting [2]) is more than 40 µM; in the data set with SW620 tumor organoids (Homo sapiens, SW-620, read-out: Tumor Organoid Cytotoxicity IC50 (μM) SW620), more than 40 µM.

As to `Cc1cc(NCc2ccc(NC(=O)Cc3cc(Br)cs3)cc2)nc(N2CCN(C)CC2)n1` [Compound 6.44], the IC50 at cat-CHD1L ATPase is 1.2 µM; in the data set on HCT116 tumor organoids (Homo sapiens, HCT-116, 72 h) it was 14 µM; with SW620 tumor organoids (setting [2]), 22.7 µM.

Regarding `Cc1cc(N2CCN(C)CC2)nc(NCc2ccc(NC(=O)Cc3cc(Br)cs3)cc2)n1` [Compound 6.45], the IC50 on cat-CHD1L ATPase was 1.4 µM; in the data set with HCT116 tumor organoids (Homo sapiens, HCT-116, 72 h), 10.6 µM; in the data set with SW620 tumor organoids (setting [2]), 27.2 µM.

For `Cc1cc(NCc2ccc(NC(=O)Cc3cc(Br)cs3)cc2)nc(N2CCCCC2)n1` [Compound 6.46], the IC50 at cat-CHD1L ATPase is 0.7 µM; in the data set with HCT116 tumor organoids (Homo sapiens, HCT-116, 72 h), 8.3 µM; in the data set on SW620 tumor organoids (setting [2]), 12.5 µM.

Regarding `Cc1cc(N2CCCCC2)nc(NCc2ccc(NC(=O)Cc3cc(Br)cs3)cc2)n1` [Compound 6.47], the IC50 at cat-CHD1L ATPase was 0.8 µM; with HCT116 tumor organoids (Homo sapiens, HCT-116, 72 h), 9.3 µM; in the data set on SW620 tumor organoids (setting [2]), 13.8 µM.

With `Cc1cc(Nc2ccc(NC(=O)Cc3cc(Br)cs3)cc2)nc(N2CCN(C)CC2)n1` [Compound 6.48], the IC50 is 4.5 µM on cat-CHD1L ATPase; 7.6 µM in the data set on HCT116 tumor organoids (Homo sapiens, HCT-116, 72 h); 21.8 µM in the data set with SW620 tumor organoids (setting [2]).

As to `Cc1cc(Nc2ccc(NC(=O)Cc3cc(Br)cs3)cc2)nc(N2CCCCC2)n1` [Compound 6.49], the IC50 at cat-CHD1L ATPase was determined as 2.3 µM; in the data set on HCT116 tumor organoids (Homo sapiens, HCT-116, 72 h), 14.7 µM; in the data set with SW620 tumor organoids (setting [2]), 17 µM.

On to `Cc1cc(Nc2ccc(NC(=O)Cn3ccnc3)cc2)nc(N2CCCC2)n1` [Compound 6.50], for which the IC50 at cat-CHD1L ATPase is more than 20 µM; in the data set on HCT116 tumor organoids (Homo sapiens, HCT-116, 72 h), 26.2 µM; with SW620 tumor organoids (setting [2]), more than 40 µM.

In the case of `Cc1cc(Nc2ccc(NC(=O)Cn3ccnc3)cc2)nc(N2CCCCC2)n1` [Compound 6.51], the half-maximal inhibitory concentration (IC50) came out at 6 µM at cat-CHD1L ATPase; 15.1 µM with HCT116 tumor organoids (Homo sapiens, HCT-116, 72 h); 40.7 µM with SW620 tumor organoids (setting [2]).

Take `Cc1cc(Nc2ccc(NC(=O)Cn3ccnc3)cc2)nc(N2CCN(C)CC2)n1` [Compound 6.52]: the IC50 on cat-CHD1L ATPase was more than 20 µM; in the data set on HCT116 tumor organoids (Homo sapiens, HCT-116, 72 h), more than 20 µM; in the data set on SW620 tumor organoids (setting [2]), more than 20 µM.

Take `Cc1cc(Nc2ccc(NC(=O)Cc3cc(Br)cs3)cc2)n2nc(N)nc2n1` [Compound 6.53]: the IC50 is more than 20 µM at cat-CHD1L ATPase; more than 40 µM with HCT116 tumor organoids (Homo sapiens, HCT-116, 72 h); more than 40 µM in the data set on SW620 tumor organoids (setting [2]).

In the case of `Cc1cc(NCc2ccc(NC(=O)Cc3cc(Br)cs3)cc2)n2nc(N)nc2n1` [Compound 6.54], the IC50 on cat-CHD1L ATPase is 3.5 µM; with HCT116 tumor organoids (Homo sapiens, HCT-116, 72 h), more than 40 µM; in the data set with SW620 tumor organoids (setting [2]), more than 40 µM.

As for `Cc1cc(Nc2ccc(NC(=O)Cc3cc(Br)cs3)cc2)n2nc(N3CCCC3)nc2n1` [Compound 6.55], the IC50 on cat-CHD1L ATPase was 18.7 µM; in the data set on HCT116 tumor organoids (Homo sapiens, HCT-116, 72 h), more than 40 µM; with SW620 tumor organoids (setting [2]) it was more than 40 µM.

On to `Cc1cc(NCc2ccc(NC(=O)Cc3cc(Br)cs3)cc2)n2nc(N3CCCC3)nc2n1` [Compound 6.56], for which the IC50 at cat-CHD1L ATPase is 2.5 µM; in the data set on HCT116 tumor organoids (Homo sapiens, HCT-116, 72 h), more than 40 µM; in the data set on SW620 tumor organoids (setting [2]) it was more than 40 µM.

Consider `Cc1cc(NCc2ccc(NC(=O)Cc3cc(Br)cs3)cc2)nc(N2CCNCC2)n1` [Compound 6.57], for which the IC50 on cat-CHD1L ATPase was determined as 2.4 µM; in the data set with HCT116 tumor organoids (Homo sapiens, HCT-116, 72 h) it was 10.8 µM; in the data set on SW620 tumor organoids (setting [2]), 14.6 µM.

Consider `O=C(Cc1cc(Br)cs1)Nc1ccc(CNc2cc(C(F)(F)F)nc(N3CCCC3)n2)cc1` [Compound 6.58], for which the IC50 at cat-CHD1L ATPase is 1.4 µM; in the data set with HCT116 tumor organoids, 7.8 µM; in the data set on SW620 tumor organoids (read-out: 3 D Cytotoxicity 72 hr IC50 (μM) SW620, Table 6), 2.2 µM. Also, the “CHD1L enzyme inhibition, in words” value on cat-CHD1L ATPase (recombinant cat-CHD1L) is reported as “good enzyme inhibition”.

As for `O=C(Cc1cc(Br)cs1)Nc1ccc(Nc2cc(C(F)(F)F)nc(N3CCCC3)n2)cc1` [Compound 6.59], the IC50 on cat-CHD1L ATPase was found to be 1 µM; in the data set on HCT116 tumor organoids (Homo sapiens, HCT-116, 72 h), 11.9 µM; in the data set with SW620 tumor organoids (setting [2]), 14.8 µM.

For the origin of these results see US20230103444A1 (The Regents of the University of Colorado, a Body Corporate, priority 2020, published 2023).
